Literature values, collected in patent US20240366580A1, “NOVEL PHARMACEUTICAL COMPOSITIONS COMPRISING DABIGATRAN ETEXILATE OR SALT THEREOF” (Zim Laboratories Limited, priority 2021, published 2024).
Structures can show the parent of a compound that is named as a salt.

What was measured:
[1] = high permeability, low solubility
[2] = oral administration

In the case of `CCCCCCOC(=O)NC(=N)c1ccc(NCc2nc3cc(C(=O)N(CCC(=O)OCC)c4ccccn4)ccc3n2C)cc1` [Dabigatran etexilate mesylate, β-Alanine, N-[[2-[[[4-[[[(hexyloxy)carbonyl]amino]iminomethyl]phenyl]amino]methyl]-1-methyl-1H-benzimidazol-5-yl]carbonyl]-N-2-pyridinyl-,ethyl ester, methanesulfonate], the solubility in ethanol (ethanol) is listed as “slightly soluble”, the solubility in isopropanol (isopropanol) is listed as “sparingly soluble” and the solubility in methanol (methanol) is listed as “freely soluble”. The BCS class [1] was “Class II” and the absolute bioavailability [2] was 3-7%.
